{"source": "patent US20080193563A1", "about": "“HARNESSING WNT SIGNALING TO RESTRICT HIV REPLICATION” (priority 2006, published 2008)", "key": {"[1]": {"test_system": "HIV reverse transcription in U87MG", "assay": "Early and late HIV reverse transcription in U87MG, real-time PCR", "type": "cell-based", "conditions": "IFNγ pre-treated 24 h", "procedure": "FIG. 31 Comparative analysis of early and late HIV reverse transcription (RT) between infected untreated and infected IFN-γ treated astrocytes. U87MG cells were left untreated or treated with IFN-γ prior to HIV infection as described in Materials and Methods. Total DNA was isolated and amplified for tierh early HIV reverse transcription (reverse transcription initiation) using primer pair R and U5 at 24 h postinfection or late HIV transcription using primer pair R and 5NC at 96 h postinfection. (A) Comparison of amplified HIV DNA between untreated and IFN-γ-treated cultures. […] Rn stands for reading normalized, which equals the SyberGreen value divided by the ROX reference dye value.\nRestriction to HIV replication is not at the level of HIV entry and reverse transcription. […] Early HIV reverse transcription was evaluated by real-time PCR at […] post-infection by amplifying with the R/U5 primer pairs, which detect negative-strand “strong-stop” DNA indicative of reverse transcription initiation. […]\nLevels of HIV reverse transcription are similar between untreated and IFN-γ-treated astrocytes. […] Early HIV reverse transcription was evaluated by real-time PCR at 24 h postinfection by amplification with the R/U5 primer pair, which detects negative-strand “strong-stop” DNA indicative of reverse transcription initiation). […]"}, "TCF-4 / Wnt signaling": {"test_system": "TCF-4 / Wnt signaling", "assay": "TOPflash luciferase reporter (Wnt signaling) in U87MG", "type": "cell-based, human", "conditions": "IFNγ treated, 24 hrs post-transfection", "procedure": "FIG. 11 Impact of IFN-γ on Wnt signaling. U87MG cells were left untreated or treated with IFN-γ for 24 hrs and then transfected with either TOPflash (containing four native TCF/LEF binding sites) and Renilla constructs or GFP and Renilla constructs. Transfected cells were then cultured with or without their initial treatment (with or without IFN-γ). Luciferase relative light activity (relative light units) was measured 24 hrs later using a luminometer and normalized to Renilla activity. Data are based on at least three experiments and are presented as the increase (n-fold) in luciferase relative light units over Renilla ±standard deviation.\nWnt signaling in astrocytes and its inhibition by IFNγ was investigated: Although inhibiting TCF-4 with a dominant negative mutant stresses the importance of active TCF-4 in restricting HIV replication, it is not informative regarding the mechanism by which IFNγ overcomes astrocyte restriction to productive HIV replication. […] Luc activity was measured 24 hrs post-transfection TCF-4 reporter construct is an indicator of basal and inducible levels of Wnt signaling.\nActive Wnt signaling in astrocytes and its inhibition by IFN-γ. […] Basal TCF-4 activity was detected in astrocytes, indicating active Wnt signaling in human astrocytes (FIG. 11). […]"}}, "data": [{"substance": "IFNγ: cytokine secreted by lymphocytes, activated microglia and astrocytes; used to prime astrocytes", "values": [{"measurement": "Early HIV reverse transcription DNA (R/U5) vs untreated", "setting": "[1]", "value": "similar"}, {"measurement": "Late HIV reverse transcription DNA (R/5NC) vs untreated", "setting": "[1]", "value": "similar"}, {"measurement": "Reduction of basal Wnt signaling (TOPflash luciferase)", "setting": "TCF-4 / Wnt signaling", "value": "approximately 50%"}]}]}
